Assays:
[1] = system: C3H mice; assay: Survival of mice given p38MAPK or pJNK inhibitor before FUS1-nanoparticles; type: in vivo
Method: The amount of FUS1 plasmid DNA delivered was 100 μg. Animals were injected intravenously with FUS1-nanoparticles and animal survival monitored for 25 days.

[2] = system: p44/42 MAPK; settings: MRC-9 cells, 10, 30 μM prior to FUS1-nanoparticles
Method: In vitro experiments. To determine the effect of FUS1-nanoparticles on the activation of signaling molecules associated with inflammation, MRC-9 fibroblast cells were seeded in six-well plates (5×10^5 cells/well) and incubated overnight at 37° C. and 5% CO2. […] Two-three hours after treatment, cells were transfected with FUS1-nanoparticles (2.5 μg DNA) in 0.2% serum medium. Cells were harvested at different time-points (2 h, 4 h, 15 h) after transfection, washed, and cell lysates prepared as previously described (Ramesh et al., 2001a). Untransfected cells treated with PBS served as control in these experiments. Cell lysates were subjected to western blotting analysis and probed with various antibodies as previously described (Ramesh et al., 2001b; Ito et al., 2003). In all the experiments, β-actin was detected using anti-β-actin antibody (Sigma Chemicals, St. Louis, Mo.) as a measure of internal loading control.

[3] = inhibitor 15 mg/kg intraperitoneally 24 h and 3 h prior to FUS1-nanoparticles (100 μg DNA) i.v., monitored 25 days

Compound | survival [1, 3] [%] | survival ([1]; two i.p. doses at 24 h and 3 h before complex) | p44/42 MAPK expression and downstream substrates [2]
C[S+]([O-])c1ccc(-c2nc(-c3ccncc3)c(-c3ccc(F)cc3)[nH]2)cc1 (stereo not shown) [SB 203580] | 100 | Prolonged survival | –
N#CC(=C(/N)Sc1ccccc1N)/C(C#N)=C(\N)Sc1ccccc1N [U0126] | – | – | significant inhibition
O=C1c2ccccc2-c2n[nH]c3cccc1c23 [pJNK inhibitor] | 33 | – | –
